According to patent US20240365781A1, “SYNERGISTICALLY EFFECTIVE HERBICIDE COMPOSITION COMPRISING PELARGONIC ACID AND FLAZASULFURON” (Belchim Crop Protection NV, priority 2017, published 2024):

Tests used:
Type in all cases: in vivo
Digitaria sang = assay: post-emergence test, field trial (Examples 1-5); conditions: FT, pelargonic acid 5440 g/ha, flazasulfuron 50 g/ha, 8 L/ha
From the text: (§1) The expected activity of a given combination of two or three herbicides can be calculated as follows according to a calculation method by Colby (cf. COLBY, S. R.: “Calculating synergistic and antagonistic responses of herbicide combinations”, • Weeds 15, pages 20-22, 1967): • If X=% damage by herbicide (A) at an application rate of m g/ha, • Y=% damage by herbicide (B) at an application rate of n g/ha, • E=the expected damage by herbicides (A) and (B) at application rates of m and n […] and, • then for a combination:
(§2) Individual compositions comprising pelargonic acid or flazasulfuron are compared with a herbicide composition according to the invention comprising pelargonic acid and flazasulfuron.
(§3) Herbicidal activity was determined by performing a post-emergence test. […] The corresponding mixture was in the form of a spray liquor. Besides, spray liquors of individual compositions comprising pelargonic acid or flazasulfuron were used.
(§4) Tests were performed on test fields (field trials) or in pots (pot trials).

Veronica persica = assay: post-emergence test, field trial (Examples 1-5); conditions: FT, pelargonic acid 5440 g/ha, flazasulfuron 50 g/ha, 8 L/ha
From the text: as §1, §2, §3, §4

Lolium sp. = assay: post-emergence test, field trial (Examples 1-5); conditions: 7 d, FT; pelargonic acid 5440 g/ha, flazasulfuron 50 g/ha; 8 L/ha
From the text: as §1, §2, §3, §4

Plantago major = assay: post-emergence test, field trial (Examples 1-5); conditions: FT
From the text: as §1, §2, §3, §4

Echinochloa crusgalli = assay: post-emergence test, field trial (Examples 1-5); conditions: FT
From the text: as §1, §2, §3, §4

Chenopodium album = assay: post-emergence test, field trial (Examples 1-5); conditions: FT
From the text: as §1, §2, §3, §4

Sonchus oleraceus L. = assay: post-emergence test, field trial (Examples 1-5); conditions: FT, pelargonic acid 5440 g/ha, flazasulfuron 50 g/ha, 8 L/ha
From the text: as §1, §2, §3, §4

Anagallis arvensis = assay: post-emergence test, field trial (Examples 1-5); conditions: 3 d, FT; pelargonic acid 5440 g/ha, flazasulfuron 50 g/ha; 8 L/ha
From the text: as §1, §2, §3, §4

Erodium cicuta = assay: post-emergence test, field trial (Examples 1-5); conditions: 28 d, FT; pelargonic acid 5440 g/ha, flazasulfuron 50 g/ha; 8 L/ha
From the text: as §1, §2, §3, §4

Convolvulus arvensis L. = assay: post-emergence test, field trial (Examples 1-5); conditions: 3 d, FT; pelargonic acid 5440 g/ha, flazasulfuron 50 g/ha; 8 L/ha
From the text: as §1, §2, §3, §4

Erigeron sumatrensis = assay: post-emergence field trial under rows of vines, 150-200 L water/ha (Examples 6-9); conditions: flazasulfuron 40 g/ha
Amaranthus retroflexus = assay: as above; conditions: flazasulfuron 40 g/ha
[1] = 3 d, pelargonic acid 10880 g/ha, flazasulfuron 25 g/ha, 16 L/ha
[2] = 3 d, pelargonic acid 10880 g/ha, flazasulfuron 50 g/ha, 16 L/ha
[3] = 3 d, pelargonic acid 21760 g/ha, flazasulfuron 50 g/ha, 32 L/ha
[4] = 7 d, pelargonic acid 10880 g/ha, flazasulfuron 25 g/ha, 16 L/ha
[5] = 7 d, pelargonic acid 10880 g/ha, flazasulfuron 50 g/ha, 16 L/ha
[6] = 7 d, pelargonic acid 21760 g/ha, flazasulfuron 25 g/ha, 32 L/ha
[7] = 7 d, pelargonic acid 21760 g/ha, flazasulfuron 50 g/ha, 32 L/ha
[8] = 13 d, pelargonic acid 10880 g/ha, flazasulfuron 25 g/ha, 16 L/ha
[9] = 13 d, pelargonic acid 10880 g/ha, flazasulfuron 50 g/ha, 16 L/ha
[10] = 13 d, pelargonic acid 21760 g/ha, flazasulfuron 25 g/ha, 32 L/ha
[11] = 13 d, pelargonic acid 21760 g/ha, flazasulfuron 50 g/ha, 32 L/ha
[12] = 23 d, pelargonic acid 21760 g/ha, flazasulfuron 25 g/ha, 32 L/ha
[13] = 23 d, pelargonic acid 21760 g/ha, flazasulfuron 50 g/ha, 32 L/ha
[14] = 30 d, pelargonic acid 10880 g/ha, flazasulfuron 25 g/ha, 16 L/ha
[15] = 30 d, pelargonic acid 10880 g/ha, flazasulfuron 50 g/ha, 16 L/ha
[16] = 30 d, pelargonic acid 21760 g/ha, flazasulfuron 25 g/ha, 32 L/ha
[17] = 30 d, pelargonic acid 21760 g/ha, flazasulfuron 50 g/ha, 32 L/ha
[18] = 38 d, pelargonic acid 10880 g/ha, flazasulfuron 25 g/ha, 16 L/ha
[19] = 38 d, pelargonic acid 10880 g/ha, flazasulfuron 50 g/ha, 16 L/ha
[20] = 38 d, pelargonic acid 21760 g/ha, flazasulfuron 25 g/ha, 32 L/ha
[21] = 38 d, pelargonic acid 21760 g/ha, flazasulfuron 50 g/ha, 32 L/ha
[22] = 3 d, pelargonic acid 21760 g/ha, flazasulfuron 25 g/ha, 32 L/ha
[23] = 23 d, pelargonic acid 10880 g/ha, flazasulfuron 25 g/ha, 16 L/ha

CCCCCCCCC(=O)O [Pelargonic acid, nonanoic acid]
herbicidal effect (Digitaria sang; 3 d): 51.3%
herbicidal effect (Digitaria sang; 7 d): 30.8%
herbicidal effect (Digitaria sang; 12 d): 5%
herbicidal effect (Digitaria sang; 72 d): 0%
herbicidal effect (Veronica persica; 3 d): 8.8%
herbicidal effect (Veronica persica; 7 d): 20%
herbicidal effect (Veronica persica; 56 d): 16.3%
herbicidal effect (Lolium sp.): 18.8%
herbicidal effect (Plantago major; [1]): 20%
herbicidal effect (Plantago major; [2]): 20%
herbicidal effect (Plantago major; [3]): 50%
herbicidal effect (Plantago major; [4]): 25%
herbicidal effect (Plantago major; [5]): 25%
herbicidal effect (Plantago major; [6]): 40%
herbicidal effect (Plantago major; [7]): 40%
herbicidal effect (Plantago major; [8]): 0%
herbicidal effect (Plantago major; [9]): 0%
herbicidal effect (Plantago major; [10]): 0%
herbicidal effect (Plantago major; [11]): 0%
herbicidal effect (Plantago major; [12]): 15%
herbicidal effect (Plantago major; [13]): 15%
herbicidal effect (Plantago major; [14]): 0%
herbicidal effect (Plantago major; [15]): 0%
herbicidal effect (Plantago major; [16]): 0%
herbicidal effect (Plantago major; [17]): 0%
herbicidal effect (Plantago major; [18]): 0%
herbicidal effect (Plantago major; [19]): 0%
herbicidal effect (Plantago major; [20]): 0%
herbicidal effect (Plantago major; [21]): 0%
herbicidal effect (Echinochloa crusgalli; 3 d, pelargonic acid 5440 g/ha, flazasulfuron 50 g/ha, 8 L/ha): 51.3%
herbicidal effect (Echinochloa crusgalli; [1]): 45%
herbicidal effect (Echinochloa crusgalli; [22]): 50%
herbicidal effect (Echinochloa crusgalli; 7 d, pelargonic acid 5440 g/ha, flazasulfuron 50 g/ha, 8 L/ha): 30.8%
herbicidal effect (Echinochloa crusgalli; [4]): 30%
herbicidal effect (Echinochloa crusgalli; [5]): 30%
herbicidal effect (Echinochloa crusgalli; [7]): 45%
herbicidal effect (Echinochloa crusgalli; 12 d, pelargonic acid 5440 g/ha, flazasulfuron 50 g/ha, 8 L/ha): 5%
herbicidal effect (Echinochloa crusgalli; [8]): 0%
herbicidal effect (Echinochloa crusgalli; [9]): 0%
herbicidal effect (Echinochloa crusgalli; [10]): 0%
herbicidal effect (Echinochloa crusgalli; [11]): 0%
herbicidal effect (Echinochloa crusgalli; [23]): 10%
herbicidal effect (Echinochloa crusgalli; 23 d, pelargonic acid 10880 g/ha, flazasulfuron 50 g/ha, 16 L/ha): 10%
herbicidal effect (Echinochloa crusgalli; [12]): 10%
herbicidal effect (Echinochloa crusgalli; [13]): 10%
herbicidal effect (Echinochloa crusgalli; 26 d, pelargonic acid 5440 g/ha, flazasulfuron 50 g/ha, 8 L/ha): 0%
herbicidal effect (Echinochloa crusgalli; [14]): 0%
herbicidal effect (Echinochloa crusgalli; [16]): 0%
herbicidal effect (Echinochloa crusgalli; [18]): 0%
herbicidal effect (Echinochloa crusgalli; [20]): 0%
herbicidal effect (Echinochloa crusgalli; 72 d, pelargonic acid 5440 g/ha, flazasulfuron 50 g/ha, 8 L/ha): 0%
herbicidal effect (Chenopodium album; [1]): 40%
herbicidal effect (Chenopodium album; [2]): 40%
herbicidal effect (Chenopodium album; [22]): 45%
herbicidal effect (Chenopodium album; [3]): 45%
herbicidal effect (Chenopodium album; [4]): 40%
herbicidal effect (Chenopodium album; [5]): 40%
herbicidal effect (Chenopodium album; [6]): 35%
herbicidal effect (Chenopodium album; [7]): 35%
herbicidal effect (Chenopodium album; [8]): 10%
herbicidal effect (Chenopodium album; [9]): 10%
herbicidal effect (Chenopodium album; [10]): 10%
herbicidal effect (Chenopodium album; [11]): 10%
herbicidal effect (Chenopodium album; [23]): 15%
herbicidal effect (Chenopodium album; [12]): 40%
herbicidal effect (Chenopodium album; [13]): 40%
herbicidal effect (Chenopodium album; [14]): 0%
herbicidal effect (Chenopodium album; [15]): 0%
herbicidal effect (Chenopodium album; [16]): 0%
herbicidal effect (Chenopodium album; [17]): 0%
herbicidal effect (Chenopodium album; [18]): 15%
herbicidal effect (Chenopodium album; [19]): 15%
herbicidal effect (Chenopodium album; [20]): 30%
herbicidal effect (Chenopodium album; [21]): 30%
herbicidal effect (Sonchus oleraceus L.; 3 d): 2.5%
herbicidal effect (Sonchus oleraceus L.; 7 d): 1.3%
herbicidal effect (Sonchus oleraceus L.; 13 d): 3.8%
herbicidal effect (Sonchus oleraceus L.; 28 d): 1.3%
herbicidal effect (Sonchus oleraceus L.; 58 d): 0%
herbicidal effect (Anagallis arvensis): 13.8%
herbicidal effect (Erodium cicuta): 82.5%
herbicidal effect (Convolvulus arvensis L.): 11.3%
herbicidal effect (Erigeron sumatrensis; 5 d, pelargonic acid 5440 g/ha): 55%
herbicidal effect (Erigeron sumatrensis; 5 d, pelargonic acid 8160 g/ha): 83%
herbicidal effect (Erigeron sumatrensis; 15 d, pelargonic acid 5440 g/ha): 35%
herbicidal effect (Erigeron sumatrensis; 15 d, pelargonic acid 6800 g/ha): 50%
herbicidal effect (Erigeron sumatrensis; 15 d, pelargonic acid 8160 g/ha): 61%
herbicidal effect (Amaranthus retroflexus; 7 d, pelargonic acid 5440 g/ha): 53%
herbicidal effect (Amaranthus retroflexus; 7 d, pelargonic acid 10880 g/ha): 86%
herbicidal effect (Amaranthus retroflexus; 14 d, pelargonic acid 5440 g/ha): 53%
herbicidal effect (Amaranthus retroflexus; 14 d, pelargonic acid 10880 g/ha): 86%
herbicidal effect (Amaranthus retroflexus; 31 d, pelargonic acid 5440 g/ha): 48%
herbicidal effect (Amaranthus retroflexus; 31 d, pelargonic acid 6800 g/ha): 50%
herbicidal effect (Amaranthus retroflexus; 31 d, pelargonic acid 8160 g/ha): 70%
herbicidal effect (Amaranthus retroflexus; 31 d, pelargonic acid 10880 g/ha): 75%
herbicidal effect (Amaranthus retroflexus; 58 d, pelargonic acid 5440 g/ha): 18%
herbicidal effect (Amaranthus retroflexus; 58 d, pelargonic acid 6800 g/ha): 30%
herbicidal effect (Amaranthus retroflexus; 58 d, pelargonic acid 8160 g/ha): 48%
herbicidal effect (Amaranthus retroflexus; 58 d, pelargonic acid 10880 g/ha): 63%
